Measurements: patent publication US8658648B2, “Modified chloroquines with single ring moiety or fused ring moiety” (DesignMedix, Inc., priority 2008, dated 2014)
Read-outs that look alike come from different tables or passages of the source.

Key:
[1] = tested on: mitogen-induced marine spleen lymphocytes; assay type: cell-based; conditions: LC50; mouse spleen lymphocytes, 72 hours incubation, then resazurin 24 hours
Description: Mouse spleen lymphocytes were isolated from C57B1/6J mice by teasing tissues on a metallic sieve screen. […] Two hundred (200) μl isolated cells were then seeded in separate wells of a 96-well flat-bottom tissue culture plate at a density of 2×10^5 cells per well. […] After 72 hours incubation in a humidified atmosphere at 37° C. and 5% CO2, a solution of resazurin PBS was added to a final concentration 10 μM, and the plates were returned to the incubator for another 24 hours. Resazurin is a substrate which changes color in response to metabolic activity (such as that found in living cells). […] LC50 values were determined from plots of florescence versus drug concentration using non-linear regression by Prism software.

[2] = tested on: 7G8 (CQ^R) P. falciparum strain; experiment: In vitro fluorescence (Sybr Green I) assay for IC50 against 7G8 strain; assay type: cell-based; conditions: Plasmodium falciparum, read-out: IC50-7G8
Excerpt: (§1) This method employs fluorescent detection of the level of parasitemia in cultured red blood cells and can be automated for high-throughput screening of antimalarial RCQs. This exemplary method allows the inhibitory agent (such as a MCQ) to be in contact with the parasite for an entire developmental cycle without purine starvation, which is in contrast to the traditional ^3H-hypoxanthine method (Desjardins et al. 1979. Antimicrob. Agents Chemother. 16(6):710-718, which is incorporated herein by reference in its entirety). Briefly, to perform the Smilkstein et al. method, an initial parasitemia of approximately 0.2% is attained by adding uninfected red blood cells (RBCs) to a stock culture of Plasmodium-infected RBCs. […] After a period of incubation (such as about 72 hours), a sufficient amount (e.g., 100 μL) of a fluorescent DNA binding dye-detergent mixture (e.g., Sybr Green I dye-detergent mixture) to lyse cells and bind to DNA is added to the reactions. Because uninfected RBCs have no DNA, only parasite DNA (in infected RBCs) is available for binding to the fluorescent dye (e.g., Sybr Green I). Samples are then incubated in the dark for a period of time (e.g., one hour), followed by measurement of levels of fluorescence. For Sybr Green 1, excitation and emission wavelength are 485 and 530 nm, respectively. Fluorescence readings, which represent the amount of parasite DNA in the sample, can be plotted against the Log [drug] and fit to a curve by nonlinear regression to obtain the IC50 value for the tested compound.
(§2) An in vitro fluorescence assay for determining IC50 of antimalarial drugs was performed as previously described by Smilkstein et al. (2004. Antimicrob. Agents Chemother. 48(5):1803-1806). This procedure can be automated for high-throughput screening of the antimalarial activities of RCQs described herein. This method also allows the tested agent (e.g., a MCQ) to be in contact with the parasite for an entire developmental cycle without purine starvation (which occurs with the commonly used ^3H-hypoxanthine method; see, e.g., Desjardins et al. 1979. Antimicrob. Agents Chemother. 16, (6):710-7188).
(§3) Briefly, an initial parasitemia of approximately 0.2% was attained by addition of uninfected red blood cells to a stock culture of cells infected with Dd2 (CQ^R), 7G8 (CQ^R), or D6 (CQ^S) P. falciparum strains. A 10 mM solution of a test compound (in DMSO) was prepared. The test compound (at a final concentration from 10^−11 to 10^−4 M) and infected red blood cells (at a final concentration of 2% (v/v)) were mixed in 100 μL samples in individual wells of a 96-well plate. Each sample was prepared in triplicate. A triplicate set of reactions containing CQ (instead of the test compound) was included as a control. After a 72 hour incubation period, Sybr Green I dye-detergent mixture (100 μL) was added to each reaction. The samples were further incubated for an hour in the dark, and then placed in a 96-well fluorescence plate reader (Gemini-EM, […]) and analyzed with excitation and emission wavelength bands at 485 and 530 nm, respectively. Fluorescence readings were plotted against the Log [drug], and curve fitting performed by nonlinear regression to find the IC50 value.

[3] = tested on: D6 (CQ^S) P. falciparum strain; experiment: In vitro fluorescence (Sybr Green I) assay for IC50 against D6 strain; assay type: cell-based; conditions: Plasmodium falciparum, read-out: IC50-D6
Excerpt: as §1, §2, §3

[4] = tested on: Dd2 (CQ^R) P. falciparum strain; experiment: In vitro fluorescence (Sybr Green I) assay for IC50 against Dd2 strain; assay type: cell-based; conditions: Plasmodium falciparum, read-out: IC50-Dd2
Excerpt: as §1, §2, §3

[5] = tested on: P. falciparum strain FCR3; conditions: cited from earlier work; further: key: S = sensitive; R = resistant; S/R = intermediate level of resistance
P. falciparum strain W2 = conditions: cited from earlier work; further: key: S = sensitive; R = resistant; S/R = intermediate level of resistance
P. falciparum strain D6 = conditions: cited from earlier work; further: key: S = sensitive; R = resistant; S/R = intermediate level of resistance
P. falciparum strain Dd2 = conditions: cited from earlier work; further: key: S = sensitive; R = resistant; S/R = intermediate level of resistance
[6] = tested on: P. falciparum strain TM91C235; conditions: cited from earlier work; further: key: S = sensitive; R = resistant; S/R = intermediate level of resistance
[7] = Erythrocyte, 7G8 (CQ^R) strain in infected red blood cells, 72 hour incubation
[8] = Erythrocyte, D6 (CQ^S) strain in infected red blood cells, 72 hour incubation
[9] = Erythrocyte, Dd2 (CQ^R) strain in infected red blood cells, 72 hour incubation

IC50 [2, 7] [pM] | IC50 [3, 8] [pM] | IC50 [4, 9] [pM] | SMILES | IC50 ([3]; D6, Erythrocyte, 72 h) [pM] | IC50 ([4]; DD2, Erythrocyte, 72 h) [pM] | further results
– | – | – | Clc1ccc2c(NCCCN3CCN(c4ccc(-c5ccccc5)cc4)CC3)ccnc2c1 [N-(3-(4-(biphenyl-4-yl)piperazin-1-yl)propyl)-7-chloroquinolin-4-amine] | 100 | 360 | Cytotoxicity [1]: 2200 nM; IC50 ([2]; 7G8, Erythrocyte, 72 h): 130 pM
– | – | – | O=[N+]([O-])c1ccc(N2CCN(CCCNc3ccnc4cc(Cl)ccc34)CC2)c([N+](=O)[O-])c1 [7-chloro-N-(3-(4-(2,4-dinitrophenyl)piperazin-1-yl)propyl)quinolin-4-amine] | 300 | 470 | IC50 ([2]; 7G8, Erythrocyte, 72 h): 350 pM
– | – | – | Clc1ccc2c(NCCCN3CCN(c4ccc(Cl)c(Cl)c4)CC3)ccnc2c1 [7-chloro-N-(3-(4-(3,4-dichlorophenyl)piperazin-1-yl)propyl)quinolin-4-amine] | 100 | 900 | IC50 ([2]; 7G8, Erythrocyte, 72 h): 280 pM
– | – | – | COc1ncnc(NS(=O)(=O)c2ccc(N)cc2)c1OC [Sulfadoxine] | – | – | Drug susceptibility of P. falciparum strain FCR3 [5]: S; Drug susceptibility of P. falciparum strain W2 (P. falciparum strain W2): R; Drug susceptibility of P. falciparum strain D6 (P. falciparum strain D6): S; Drug susceptibility of P. falciparum strain Dd2 (P. falciparum strain Dd2): S; Drug susceptibility of P. falciparum strain TM91C235 [6]: R
– | – | – | Clc1ccc2c(NCCCN3CCN(c4ccccc4)CC3)ccnc2c1 [7-chloro-N-(3-(4-phenylpiperazin-1-yl)propyl)quinolin-4-amine] | < 2500 | < 2500 | Cytotoxicity [1]: 6400 nM
– | – | – | OC(c1cc(C(F)(F)F)nc2c(C(F)(F)F)cccc12)C1CCCCN1 (centres unmarked) [Mefloquine] | – | – | Drug susceptibility of P. falciparum strain FCR3 [5]: S; Drug susceptibility of P. falciparum strain W2 (P. falciparum strain W2): S; Drug susceptibility of P. falciparum strain D6 (P. falciparum strain D6): S/R; Drug susceptibility of P. falciparum strain Dd2 (P. falciparum strain Dd2): R; Drug susceptibility of P. falciparum strain TM91C235 [6]: R
6800 | 2070 | 2000 | Clc1ccc2c(NCCCN3CCN(c4ccncc4)CC3)ccnc2c1 [7-chloro-N-(3-(4-(pyridin-4-yl)piperazin-1-yl)propyl)quinolin-4-amine] | – | – | –
2900 | 2070 | 1100 | Clc1ccc2c(NCCCN3CCN(c4cccnc4)CC3)ccnc2c1 [7-chloro-N-(3-(4-(pyridin-3-yl)piperazin-1-yl)propyl)quinolin-4-amine] | – | – | –
300 | 140 | 800 | Fc1ccc(N2CCN(CCCNc3ccnc4cc(Cl)ccc34)CC2)cc1 [7-chloro-N-(3-(4-(4-fluorophenyl)piperazin-1-yl)propyl)quinolin-4-amine] | – | – | –
– | – | – | Nc1ccc(N2CCN(CCCNc3ccnc4cc(Cl)ccc34)CC2)cc1 [N-(3-(4-(4-aminophenyl)piperazin-1-yl)propyl)-7-chloroquinolin-4-amine] | 1800 | 3160 | IC50 ([2]; 7G8, Erythrocyte, 72 h): 3200 pM
– | – | – | Clc1ccc2c(NCCCN3CCN(c4cccc(-c5ccccc5)c4)CC3)ccnc2c1 [N-(3-(4-(biphenyl-3-yl)piperazin-1-yl)propyl)-7-chloroquinolin-4-amine] | 940 | 1800 | Cytotoxicity [1]: 2100 nM
450 | 260 | 480 | O=[N+]([O-])c1ccc(N2CCN(CCCNc3ccnc4cc(Cl)ccc34)CC2)nc1 [7-chloro-N-(3-(4-(5-nitropyridin-2-yl)piperazin-1-yl)propyl)quinolin-4-amine] | – | – | –
– | – | – | C=C[C@H]1C[N@@]2CC[C@H]1C[C@H]2[C@H](O)c1ccnc2ccc(OC)cc12 [Quinine] | – | – | Drug susceptibility of P. falciparum strain FCR3 [5]: S; Drug susceptibility of P. falciparum strain W2 (P. falciparum strain W2): R; Drug susceptibility of P. falciparum strain D6 (P. falciparum strain D6): S; Drug susceptibility of P. falciparum strain Dd2 (P. falciparum strain Dd2): R; Drug susceptibility of P. falciparum strain TM91C235 [6]: R
– | – | – | O=[N+]([O-])c1ccc(N2CCN(CCCNc3ccnc4cc(Cl)ccc34)CC2)cc1 [7-chloro-N-(3-(4-(4-nitrophenyl)piperazin-1-yl)propyl)quinolin-4-amine] | 800 | 1140 | IC50 ([2]; 7G8, Erythrocyte, 72 h): 400 pM
1000 | 500 | 830 | FC(F)(F)c1ccc(N2CCN(CCCNc3ccnc4cc(Cl)ccc34)CC2)nc1 [7-chloro-N-(3-(4-(5-(trifluoromethyl)pyridin-2-yl)piperazin-1-yl)propyl)quinolin-4-amine] | – | – | –
– | – | – | Clc1ccc(N2CCN(CCCNc3ccnc4cc(Cl)ccc34)CC2)cc1 [7-chloro-N-(3-(4-(4-chlorophenyl)piperazin-1-yl)propyl)quinolin-4-amine] | 5 | 330 | IC50 ([2]; 7G8, Erythrocyte, 72 h): 90 pM
– | – | – | Clc1ccc2c(NCCCN3CCN(c4ccccc4-c4ccccc4)CC3)ccnc2c1 [N-(3-(4-(biphenyl-2-yl)piperazin-1-yl)propyl)-7-chloroquinolin-4-amine] | 1200 | 2600 | Cytotoxicity [1]: 1700 nM
200 | 5 | 170 | FC(F)(F)c1ccc(N2CCN(CCCNc3ccnc4cc(Cl)ccc34)CC2)cc1 [7-chloro-N-(3-(4-(4-(trifluoromethyl)phenyl)piperazin-1-yl)propyl)quinolin-4-amine] | – | – | –
– | – | – | CC1(C)N=C(N)N=C(N)N1c1ccc(Cl)cc1 [Cycloguanil] | – | – | Drug susceptibility of P. falciparum strain FCR3 [5]: S; Drug susceptibility of P. falciparum strain W2 (P. falciparum strain W2): R; Drug susceptibility of P. falciparum strain D6 (P. falciparum strain D6): S; Drug susceptibility of P. falciparum strain Dd2 (P. falciparum strain Dd2): S
300 | 100 | 480 | COc1ccc(N2CCN(CCCNc3ccnc4cc(Cl)ccc34)CC2)cc1 [7-chloro-N-(3-(4-(4-methoxyphenyl)piperazin-1-yl)propyl)quinolin-4-amine] | – | – | –
300 | 110 | 860 | Cc1ccc(N2CCN(CCCNc3ccnc4cc(Cl)ccc34)CC2)cc1 [7-chloro-N-(3-(4-p-tolylpiperazin-1-yl)propyl)quinolin-4-amine] | – | – | –
3300 | 1300 | 1000 | Clc1ccc2c(NCCCN3CCN(c4ncccn4)CC3)ccnc2c1 [7-chloro-N-(3-(4-(pyrimidin-2-yl)piperazin-1-yl)propyl)quinolin-4-amine] | – | – | –
12200 | 4570 | 3900 | Clc1ccc2c(NCCN3CCN(c4ccccn4)CC3)ccnc2c1 [7-chloro-N-(2-(4-(pyridin-2-yl)piperazin-1-yl)ethyl)quinolin-4-amine] | – | – | –

SMILES | IC50 [2, 7] [pM] | IC50 [3, 8] [pM] | IC50 [4, 9] [pM] | IC50 ([3]; D6, Erythrocyte, 72 h) [pM] | IC50 ([4]; DD2, Erythrocyte, 72 h) [pM] | further results
O=[N+]([O-])c1cnc(N2CCN(CCCNc3ccnc4cc(Cl)ccc34)CC2)c([N+](=O)[O-])c1 [7-chloro-N-(3-(4-(3,5-dinitropyridin-2-yl)piperazin-1-yl)propyl)quinolin-4-amine] | 900 | 450 | 850 | – | – | –
